# Assay results taken from patent publication US11254686B1 (Corvus Pharmaceuticals, Inc., priority 2017, dated 2022).
# Columns and labels:
# Format in all cases: biochemical
# adenosine A1 receptor = adenosine A1 receptor (Homo sapiens (Human), UniProt P30542); assay: Adenosine receptor activity assay (Table 1), A1 cAMP
# adenosine A3 receptor = adenosine A3 receptor (Homo sapiens (Human), UniProt P0DMS8); assay: Adenosine receptor activity assay (Table 1), A3 cAMP
# adenosine A2B receptor = adenosine A2B receptor (Homo sapiens (Human), UniProt P29275); assay: Adenosine receptor activity assay (Table 1), A2B activity; details: for Ratio: A2A activity to the A2B activity, A2A/A2B; for IC50: cAMP, read-out: Ave A2B cAMP IC50
# adenosine A2A receptor = adenosine A2A receptor (Homo sapiens (Human), UniProt P29274); assay: Adenosine receptor activity assay (Table 1), A2A activity; details: cAMP; read-out: Ave A2A cAMP IC50
# Chain of adenosine A2A receptor (P29274 whole entry): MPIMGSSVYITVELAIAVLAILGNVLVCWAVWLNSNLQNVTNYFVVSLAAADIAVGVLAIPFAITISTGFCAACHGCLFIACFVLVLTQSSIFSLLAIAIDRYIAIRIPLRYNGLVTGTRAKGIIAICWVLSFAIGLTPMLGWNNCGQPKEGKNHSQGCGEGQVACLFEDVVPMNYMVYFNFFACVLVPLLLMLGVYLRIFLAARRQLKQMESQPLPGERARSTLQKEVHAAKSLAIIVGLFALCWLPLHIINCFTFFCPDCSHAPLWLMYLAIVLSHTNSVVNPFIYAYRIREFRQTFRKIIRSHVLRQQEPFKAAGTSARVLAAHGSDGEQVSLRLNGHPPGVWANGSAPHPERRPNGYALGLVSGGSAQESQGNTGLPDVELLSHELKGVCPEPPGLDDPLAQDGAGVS
# Chain of adenosine A2B receptor (P29275 whole entry): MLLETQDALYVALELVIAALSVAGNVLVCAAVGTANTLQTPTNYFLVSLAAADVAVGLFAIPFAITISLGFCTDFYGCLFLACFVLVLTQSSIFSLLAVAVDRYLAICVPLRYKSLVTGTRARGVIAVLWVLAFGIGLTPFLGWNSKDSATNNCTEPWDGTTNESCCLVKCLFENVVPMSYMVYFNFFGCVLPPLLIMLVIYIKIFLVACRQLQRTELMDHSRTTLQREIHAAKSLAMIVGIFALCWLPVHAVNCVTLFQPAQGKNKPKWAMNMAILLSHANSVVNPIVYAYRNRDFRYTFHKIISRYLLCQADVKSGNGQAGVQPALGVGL
# Chain of adenosine A3 receptor (P0DMS8 whole entry): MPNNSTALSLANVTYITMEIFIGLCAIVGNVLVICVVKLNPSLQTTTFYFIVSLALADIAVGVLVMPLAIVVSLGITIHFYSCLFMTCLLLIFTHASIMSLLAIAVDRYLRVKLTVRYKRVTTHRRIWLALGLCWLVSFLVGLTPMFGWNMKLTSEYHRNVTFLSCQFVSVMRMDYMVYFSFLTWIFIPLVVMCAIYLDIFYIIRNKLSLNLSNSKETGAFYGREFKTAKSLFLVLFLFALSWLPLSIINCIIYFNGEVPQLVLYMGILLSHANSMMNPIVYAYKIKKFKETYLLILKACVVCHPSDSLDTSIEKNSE
# Chain of adenosine A1 receptor (P30542 whole entry): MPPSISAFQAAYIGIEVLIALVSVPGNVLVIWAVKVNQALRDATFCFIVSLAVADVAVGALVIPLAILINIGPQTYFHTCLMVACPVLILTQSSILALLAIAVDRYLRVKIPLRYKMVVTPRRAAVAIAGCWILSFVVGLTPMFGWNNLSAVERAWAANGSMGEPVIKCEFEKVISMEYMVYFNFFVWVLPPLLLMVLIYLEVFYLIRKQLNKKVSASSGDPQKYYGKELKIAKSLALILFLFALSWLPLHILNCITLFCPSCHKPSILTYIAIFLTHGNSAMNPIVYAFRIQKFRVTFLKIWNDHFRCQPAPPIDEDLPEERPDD
SMILES,IC50 (adenosine A1 receptor) [nM],IC50 (adenosine A3 receptor) [nM],Ratio (adenosine A2B receptor),IC50 (adenosine A2B receptor) [nM],IC50 (adenosine A2A receptor) [nM]
"C[C@H](Nc1nc(C(=O)N2CC(NC(=O)C3(C)CCOC3)C2)c2sccc2n1)c1cncc(F)c1 (stereo partly drawn) [Example Z608, N-(1-(2-(((S)-1-(5-Fluoropyridin-3-yl)ethyl)amino)thieno[3,2-d]pyrimidine-4-carbonyl)azetidin-3-yl)-3-methyltetrahydrofuran-3-carboxamide]",> 500,> 500,0.42,10 to 50,< 10
"C[C@H](Nc1nc(C(=O)N2CC(NC(=O)C3(C(F)(F)F)CC3)C2)c2sccc2n1)c1cncc(F)c1 [Example Z609, (S)—N-(1-(2-((1-(5-Fluoropyridin-3-yl)ethyl)amino)thieno[3,2-d]pyrimidine-4-carbonyl)azetidin-3-yl)-1-(trifluoromethyl)cyclopropane-1-carboxamide]",> 500,100 to 500,0.98,< 10,< 10
"C[C@H](Nc1nc(C(=O)N2CC(NC(=O)C3CCCCC3)C2)c2sccc2n1)c1cncc(F)c1 [Example Z610, (S)—N-(1-(2-((1-(5-Fluoropyridin-3-yl)ethyl)amino)thieno[3,2-d]pyrimidine-4-carbonyl)azetidin-3-yl)cyclohexanecarboxamide]",> 500,10 to 50,0.24,< 10,< 10
"C[C@H](Nc1nc(C(=O)N2CC(NC(=O)NC(C)(C)C)C2)c2sccc2n1)c1cncc(F)c1 [Example Z611, (S)-1-(tert-Butyl)-3-(1-(2-((1-(5-fluoropyridin-3-yl)ethyl)amino)thieno[3,2-d]pyrimidine-4-carbonyl)azetidin-3-yl)urea]",> 500,100 to 500,0.80,< 10,< 10
"C[C@H](Nc1nc(C(=O)N2CC(NC(=O)CCC3CCOCC3)C2)c2sccc2n1)c1cncc(F)c1 [Example Z612, (S)—N-(1-(2-((1-(5-Fluoropyridin-3-yl)ethyl)amino)thieno[3,2-d]pyrimidine-4-carbonyl)azetidin-3-yl)-3-(tetrahydro-2H-pyran-4-yl)propanamide]",> 500,100 to 500,1.02,10 to 50,10 to 50
"C[C@H](Nc1nc(C(=O)N2CC(NC(=O)c3cccc(F)c3)C2)c2sccc2n1)c1cncc(F)c1 [Example Z613, (S)-3-Fluoro-N-(1-(2-((1-(5-fluoropyridin-3-yl)ethyl)amino)thieno[3,2-d]pyrimidine-4-carbonyl)azetidin-3-yl)benzamide]",> 500,100 to 500,2.55,< 10,< 10
"C[C@H](Nc1nc(C(=O)N2CC(NC(=O)c3ccccc3F)C2)c2sccc2n1)c1cncc(F)c1 [Example Z614, (S)-2-Fluoro-N-(1-(2-((1-(5-fluoropyridin-3-yl)ethyl)amino)thieno[3,2-d]pyrimidine-4-carbonyl)azetidin-3-yl)benzamide]",> 500,100 to 500,1.76,< 10,< 10
"C[C@H](Nc1nc(C(=O)N2CC(NC(=O)c3cccc(Cl)c3)C2)c2sccc2n1)c1cncc(F)c1 [Example Z615, (S)-3-Chloro-N-(1-(2-((1-(5-fluoropyridin-3-yl)ethyl)amino)thieno[3,2-d]pyrimidine-4-carbonyl)azetidin-3-yl)benzamide]",> 500,100 to 500,2.10,< 10,< 10
"C[C@H](Nc1nc(C(=O)N2CC(NC(=O)c3ccc(F)c(F)c3)C2)c2sccc2n1)c1cncc(F)c1 [Example Z616, (S)-3,4-Difluoro-N-(1-(2-((1-(5-fluoropyridin-3-yl)ethyl)amino)thieno[3,2-d]pyrimidine-4-carbonyl)azetidin-3-yl)benzamide]",> 500,> 500,4.32,< 10,10 to 50
"C[C@H](Nc1nc(C(=O)N2CC(NC(=O)c3ccc(Cl)cc3)C2)c2sccc2n1)c1cncc(F)c1 [Example Z617, (S)-4-Chloro-N-(1-(2-((1-(5-fluoropyridin-3-yl)ethyl)amino)thieno[3,2-d]pyrimidine-4-carbonyl)azetidin-3-yl)benzamide]",> 500,> 500,3.67,< 10,10 to 50
"C[C@H](Nc1nc(C(=O)N2CC(NC(=O)OC3CCCC3)C2)c2sccc2n1)c1cncc(F)c1 [Example Z618, Cyclopentyl (S)-(1-(2-((1-(5-fluoropyridin-3-yl)ethyl)amino)thieno[3,2-d]pyrimidine-4-carbonyl)azetidin-3-yl)carbamate]",> 500,100 to 500,1.31,10 to 50,10 to 50
"C[C@H](Nc1nc(C(=O)N2CC(NC(=O)c3ccncc3)C2)c2sccc2n1)c1cncc(F)c1 [Example Z619, (S)—N-(1-(2-((1-(5-Fluoropyridin-3-yl)ethyl)amino)thieno[3,2-d]pyrimidine-4-carbonyl)azetidin-3-yl)isonicotinamide]",> 500,> 500,6.42,10 to 50,50 to 100
"C[C@H](Nc1nc(C(=O)N2CC(NC(=O)c3cccnc3)C2)c2sccc2n1)c1cncc(F)c1 [Example Z620, (S)—N-(1-(2-((1-(5-Fluoropyridin-3-yl)ethyl)amino)thieno[3,2d]pyrimidine-4-carbonyl)azetidin-3-yl)nicotinamide]",> 500,> 500,3.94,10 to 50,50 to 100
"C[C@H](Nc1nc(C(=O)N2CC(C)(NC(=O)C3CC3)C2)c2sccc2n1)c1cncc(F)c1 [Example Z621, (S)—N-(1-(2-((1-(5-Fluoropyridin-3-yl)ethyl)amino)thieno[3,2-d]pyrimidine-4-carbonyl)-3-methylazetidin-3-yl)cyclopropanecarboxamide]",> 500,< 10,1.86,10 to 50,50 to 100
"C[C@H](Nc1nc(C(=O)N2CC(NC(=O)C3CCOCC3)C2)c2sccc2n1)c1cncc(F)c1 [Example Z622, (S)—N-(1-(2-((1-(5-Fluoropyridin-3-yl)ethyl)amino)thieno[3,2-d]pyrimidine-4-carbonyl)azetidin-3-yl)tetrahydro-2H-pyran-4-carboxamide]",> 500,> 500,1.02,10 to 50,10 to 50
"C[C@H](Nc1nc(C(=O)N2CC(NC(=O)NC3CCC3)C2)c2sccc2n1)c1cncc(F)c1 [Example Z623, (S)-1-Cyclobutyl-3-(1-(2-((1-(5-fluoropyridin-3-yl)ethyl)amino)thieno[3,2-d]pyrimidine-4-carbonyl)azetidin-3-yl)urea]",> 500,100 to 500,0.95,< 10,< 10
"Cc1csc2c(C(=O)N3CC(NC(=O)c4cccc(Cl)c4)C3)nc(N[C@@H](C)c3cncc(F)c3)nc12 [Example Z625, (S)-3-Chloro-N-(1-(2-((1-(5-fluoropyridin-3-yl)ethyl)amino)-7-methylthieno[3,2-d]pyrimidine-4-carbonyl)azetidin-3-yl)benzamide]",> 500,> 500,0.68,10 to 50,10 to 50
